According to US12459951B2, “Compounds that interact with RAS superfamily proteins for treatment of cancers, inflammatory diseases, rasopathies, and fibrotic disease” (SHY Therapeutics, LLC, priority 2022, dated 2025):

Columns and labels:
[1] = test system: Smad2/Smad3 phosphorylation; assay: Phospho-Smad2/3 Inhibition Assay (western blot), Panc-1; format: cell-based, human; details: at 10 μM, Panc-1 pancreatic cancer cell line; starred symbols = activation
Method in brief: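 Panc-1 cells (KRas G12D), starved overnight in 0.5% FBS, treated 3 h at 37° C with compound at 10 μM final (0.3% DMSO) or serial dilutions for IC50, then stimulated with 10 ng/ml TGF-b1 for 1 h. Phospho-Smad2 (Ser465/467) and phospho-Smad3 (Ser423/425) detected by western blot.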

TNF-alpha = TNF-alpha Quantification Assay (ELISA), LPS-stimulated RAW 264.7; format: cell-based; details: Mus musculus, RAW264.7; at 10 μM; read-out: TNFα: % inh.
KRas wild type = assay: Ras GTP Binding Domain Inhibition Assay (Ras Superfamily Assay); details: at 20 μM; for KRas wild type + SOS: % inh.: with SOS; for KRas wild type: % inh.: without SOS
Method in brief: (§1)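 His-tagged GTPases immobilised on nickel-coated plates, pre-incubated with compound (20 μM single point, or serial dilution for IC50) 3 h at room temperature, with or without 10-30 μg/mL Sos (residues 556-1049) in the final hour. Bound Cy3- or Cy5-GTP (100 nM, 45 min) measured by fluorescence after washing.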

KRas G12D mutant = assay: as above; details: at 20 μM; for KRas G12D mutant + SOS: % inh.: with SOS; for KRas G12D mutant: % inh.: without SOS
Method in brief: as §1

Rac-1 = biological target: T1, Rac-1 (Homo sapiens, UniProt P63000); assay: as above; details: read-out: Rac-1: % inh.
T1 construct: made in house
Method in brief: as §1

Compound	KRas wild type + SOS: % inh. (KRas wild type)	KRas wild type: % inh. (KRas wild type)	KRas G12D mutant + SOS: % inh. (KRas G12D mutant)	KRas G12D mutant: % inh. (KRas G12D mutant)	inhibition at 20 µM (Rac-1)	% inh of Smad2/3 phosphorylation in Panc-1 [1]	inhibition at 10 µM (TNF-alpha)
COc1ccnc(Nc2nc(-c3nccn3C)nn3cc(-c4cccnc4)c(-c4ccccc4)c23)c1 [Compound 196, N-(4-Methoxypyridin-2-yl)-2-(1-methyl-1H-imidazol-2-yl)-5-phenyl-6-(pyridin-3-yl)pyrrolo[2,1-f][1,2,4]triazin-4-amine]	D (D = 76-100% inhibition)	D (D = 76-100% inhibition)	D (D = 76-100% inhibition)	D (D = 76-100% inhibition)	76 to 100%	C (C = 46-75% inhibition)	75 to 100%
CO[C@H]1C[C@H](Nc2nc(-c3nccn3C)nn3cc(-c4ccccc4)c(-c4ccccc4)c23)C1 [Compound 203, N-((1r,3r)-3-Methoxycyclobutyl)-2-(1-methyl-1H-imidazol-2-yl)-5,6-diphenylpyrrolo[2,1-f][1,2,4]triazin-4-amine]	0 (0 = 0% inhibition)	0 (0 = 0% inhibition)	0 (0 = 0% inhibition)	0 (0 = 0% inhibition)	1 to 25%	D (D = 76-100% inhibition)	75 to 100%
CO[C@H]1C[C@H](Nc2nc(-c3nccn3C)nn3cc(-c4cccc(CN)c4)c(-c4ccccc4)c23)C1 [Compound 204, 6-(3-(aminomethyl)phenyl)-N-((1r,3r)-3-methoxycyclobutyl)-2-(1-methyl-1H-imidazol-2-yl)-5-phenylpyrrolo[2,1-f][1,2,4]triazin-4-amine]	A (A = 1-25% inhibition)	A (A = 1-25% inhibition)	A (A = 1-25% inhibition)	A (A = 1-25% inhibition)	1 to 25%	A (A = 1-25% inhibition)	25 to 49%
CO[C@H]1C[C@H](Nc2nc(-c3nccn3C)nn3cc(-c4ccc(CN)cc4)c(-c4ccccc4)c23)C1.Cl [Compound 206, 6-(4-(Aminomethyl)phenyl)-N-((1r,3r)-3-methoxycyclobutyl)-2-(1-methyl-1H-imidazol-2-yl)-5-phenylpyrrolo[2,1-f][1,2,4]triazin-4-amine hydrochloride salt]	A (A = 1-25% inhibition)	A (A = 1-25% inhibition)	A (A = 1-25% inhibition)	A (A = 1-25% inhibition)	1 to 25%	B (B = 26-45% inhibition)	1 to 24%
CO[C@H]1C[C@H](Nc2nc(-c3nccn3C)nn3cc(-c4ccc(CCN)cc4)c(-c4ccccc4)c23)C1.Cl [Compound 207, 6-(4-(2-Aminoethyl)phenyl)-N-((1r,3r)-3-methoxycyclobutyl)-2-(1-methyl-1H-imidazol-2-yl)-5-phenylpyrrolo[2,1-f][1,2,4]triazin-4-amine hydrochloride salt]	B (B = 26-49% inhibition)	B (B = 26-49% inhibition)	A (A = 1-25% inhibition)	B (B = 26-49% inhibition)	1 to 25%	D (D = 76-100% inhibition)	75 to 100%
CO[C@H]1C[C@H](Nc2nc(-c3nccn3C)nn3cc(-c4ccc(OCCN)cc4)c(-c4ccccc4)c23)C1.Cl [Compound 208, 6-(4-(2-Aminoethoxy)phenyl)-N-((1r,3r)-3-methoxycyclobutyl)-2-(1-methyl-1H-imidazol-2-yl)-5-phenylpyrrolo[2,1-f][1,2,4]triazin-4-amine hydrochloride salt]	C (C = 50-75% inhibition)	B (B = 26-49% inhibition)	C (C = 50-75% inhibition)	B (B = 26-49% inhibition)	26 to 49%	D (D = 76-100% inhibition)	25 to 49%
COc1cccc(-c2cn3nc(-c4nccn4C)nc(N[C@H]4C[C@H](OC)C4)c3c2-c2ccccc2)c1C [Compound 209, 6-(3-methoxy-2-methylphenyl)-N-((1r,3r)-3-methoxycyclobutyl)-2-(1-methyl-1H-imidazol-2-yl)-5-phenylpyrrolo[2,1-f][1,2,4]triazin-4-amine]	0 (0 = 0% inhibition)	A (A = 1-25% inhibition)	A (A = 1-25% inhibition)	A (A = 1-25% inhibition)	26 to 49%	D (D = 76-100% inhibition)	75 to 100%
CO[C@H]1C[C@H](Nc2nc(-c3nccn3C)nn3cc(-c4cccc5c4CCO5)c(-c4ccccc4)c23)C1 [Compound 210, 6-(2,3-Dihydrobenzofuran-4-yl)-N-((1r,3r)-3-methoxycyclobutyl)-2-(1-methyl-1H-imidazol-2-yl)-5-phenylpyrrolo[2,1-f][1,2,4]triazin-4-amine]	0 (0 = 0% inhibition)	A (A = 1-25% inhibition)	A (A = 1-25% inhibition)	A (A = 1-25% inhibition)	1 to 25%	D (D = 76-100% inhibition)	75 to 100%

More lines, main results first:

KRas wild type + SOS: % inh. (KRas wild type)	KRas wild type: % inh. (KRas wild type)	KRas G12D mutant + SOS: % inh. (KRas G12D mutant)	KRas G12D mutant: % inh. (KRas G12D mutant)	inhibition at 20 µM (Rac-1)	Compound	% inh of Smad2/3 phosphorylation in Panc-1 [1]	inhibition at 10 µM (TNF-alpha)
B (B = 26-49% inhibition)	A (A = 1-25% inhibition)	B (B = 26-49% inhibition)	B (B = 26-49% inhibition)	1 to 25%	CO[C@H]1C[C@@H](Nc2nc(-c3nccn3C)nn3cc(-c4cccnc4)c(-c4ccccc4)c23)C1 [Compound 191, N-((1s,3s)-3-Methoxycyclobutyl)-2-(1-methyl-1H-imidazol-2-yl)-5-phenyl-6-(pyridin-3-yl)pyrrolo[2,1-f][1,2,4]triazin-4-amine]	A* (A* = 1-25% activation)	1 to 24%
B (B = 26-49% inhibition)	B (B = 26-49% inhibition)	B (B = 26-49% inhibition)	B (B = 26-49% inhibition)	1 to 25%	CO[C@H]1C[C@H](Nc2nc(-c3nccn3C)nn3cc(-c4cccnc4)c(-c4ccccc4)c23)C1 [Compound 192, N-((1r,3r)-3-Methoxycyclobutyl)-2-(1-methyl-1H-imidazol-2-yl)-5-phenyl-6-(pyridin-3-yl)pyrrolo[2,1-f][1,2,4]triazin-4-amine]	A* (A* = 1-25% activation)	25 to 49%
0 (0 = 0% inhibition)	A (A = 1-25% inhibition)	A (A = 1-25% inhibition)	A (A = 1-25% inhibition)	1 to 25%	COCCNc1nc(-c2nccn2C)nn2cc(-c3cccnc3)c(-c3ccccc3)c12 [Compound 195, N-(2-Methoxyethyl)-2-(1-methyl-1H-imidazol-2-yl)-5-phenyl-6-(pyridin-3-yl)pyrrolo[2,1-f][1,2,4]triazin-4-amine]	A* (A* = 1-25% activation)	0%
B (B = 26-49% inhibition)	A (A = 1-25% inhibition)	B (B = 26-49% inhibition)	B (B = 26-49% inhibition)	26 to 49%	CO[C@H]1C[C@@H](Nc2nc(-c3nccn3C)nn3cc(-c4ccncc4)c(-c4ccccc4)c23)C1 [Compound 198, N-((1s,3s)-3-Methoxycyclobutyl)-2-(1-methyl-1H-imidazol-2-yl)-5-phenyl-6-(pyridin-4-yl)pyrrolo[2,1-f][1,2,4]triazin-4-amine]	A (A = 1-25% inhibition)	25 to 49%
B (B = 26-49% inhibition)	A (A = 1-25% inhibition)	B (B = 26-49% inhibition)	B (B = 26-49% inhibition)	26 to 49%	CO[C@H]1C[C@H](Nc2nc(-c3nccn3C)nn3cc(-c4ccncc4)c(-c4ccccc4)c23)C1 [Compound 199, N-((1r,3r)-3-Methoxycyclobutyl)-2-(1-methyl-1H-imidazol-2-yl)-5-phenyl-6-(pyridin-4-yl)pyrrolo[2,1-f][1,2,4]triazin-4-amine]	B (B = 26-45% inhibition)	1 to 24%
C (C = 50-75% inhibition)	B (B = 26-49% inhibition)	C (C = 50-75% inhibition)	C (C = 50-75% inhibition)	26 to 49%	COCCNc1nc(-c2nccn2C)nn2cc(-c3ccncc3)c(-c3ccccc3)c12 [Compound 202, N-(2-Methoxyethyl)-2-(1-methyl-1H-imidazol-2-yl)-5-phenyl-6-(pyridin-4-yl)pyrrolo[2,1-f][1,2,4]triazin-4-amine]	A (A = 1-25% inhibition)	1 to 24%
